assay: Inhibition of FTase

SMILES	IC50 [nM]
N#Cc1ccc(Cn2ccnc2)cc1Oc1cccc(C2CCCCNC2=O)c1 (stereo not given)	41
CC[C@@H](C)[C@@H](CO[C@@H](Cc1ccccc1)C(=O)N[C@@H](CCS(C)(=O)=O)C(=O)O)NC[C@@H](N)CS	1.8
CN1CCN(C(=O)c2cn(Cc3cncn3Cc3ccc4c(c3)OCO4)cc2-c2cccc3ccccc23)CC1	2.4
Fc1ccc2c(c1)[C@@H](OCc1ccc(Cl)cc1Cl)[C@@H](Cn1ccnc1)S2	700
CN1CCC(C2c3ccccc3CCc3cccnc32)CC1 (stereo not given)	720000
CC(C)CCCC(C)C1CCC2C3C(CC[C@]12C)[C@@](C)(C[C@@H](CC(=O)O)C(=O)O)C(=O)C[C@@H]3C (stereo not given in full)	40
CC(=O)OCC(=O)[C@@]1(O)C(C)CC2C3CCC4=CC(=O)C=C[C@]4(C)C3=CC[C@@]21C (stereo not given in full)	40000
N#Cc1ccc(Cn2cncc2CN2CCN(c3ccccc3)C(=O)C2)cc1	5
Cn1cncc1C(OCc1ccc(C#N)cc1NC(=O)c1ccccc1)c1ccc(C#N)cc1 (stereo not given)	5
CC[C@@H](C)[C@@H](CN(CC(=O)N[C@@H](CCSC)C(=O)O)Cc1cccc2ccccc12)NC(=O)Cc1cncn1Cc1ccc(C#N)cc1	0.15
CSCC[C@H](NC(=O)c1cccc2cc(NC[C@H](N)CS)ccc12)C(=O)O	18
COC(=O)[C@H](CCSC)NC(=O)c1cccc2cc(NC[C@H](N)CS)ccc12	500
COc1ccccc1CC(=O)N1C[C@@H]2[C@@H]3CC[C@@](c4ccccc4)(c4ccccc43)[C@@H]2C1	40000
O=C1CN(Cc2cncn2Cc2cccc(Oc3ccccc3)c2)CCN1c1ccc(C(F)(F)F)cc1	5800
N#Cc1ccc(Cn2cncc2CN2CCN(c3cccc(Cl)c3)C(=O)C2)cc1Oc1ccc2ccccc2c1	1
CC[C@@H](C)[C@@H](CN(CC(=O)N[C@@H](CCSC)C(=O)O)Cc1cccc2ccccc12)NC(=O)Cc1cn(Cc2ccncc2)cn1	74
CCCC[C@H]1CN(C(=O)c2cccc3ccccc23)CCN1Cc1cncn1Cc1ccc(C#N)cc1	21
Cc1cccc2c1[C@@H](O)[C@@H](Cn1ccnc1)S2	270000
CCCC[C@H]1CN(c2ccc(Cl)cc2)C(=O)CN1Cc1cncn1Cc1ccc(C#N)cc1	0.44
CC[C@]1(c2cccc(Oc3cc([C@@](C)(N)c4cncn4C)ccc3C#N)c2)CCCCN(C)C1=O	1.5
CC[C@@]1(c2cccc(Oc3cc([C@@](C)(N)c4cncn4C)ccc3C#N)c2)CCCCN(C)C1=O	0.06
C=C(C(=O)N1C[C@H]2[C@@]3(c4ccc(C)cc4)CC[C@H](c4ccccc43)[C@@]2(C(=O)O)C1)c1ccccc1OC	8
N#Cc1ccc2cc1Oc1ccc3cccc(c3c1)N1CCN(CC1=O)Cc1cncn1C2	0.1
O=C(Cc1ccncc1)N1CCN([C@H]2c3ccc(Cl)cc3CCc3cccnc32)CC1	140
CC[C@@H](C)[C@@H](CO[C@@H](Cc1ccccc1)C(=O)N[C@@H](CCS(C)(=O)=O)C(=O)OC)NC[C@@H](N)CS	240

Source: ChEMBL document CHEMBL1140594, “Farnesyltransferase pharmacophore model derived from diverse classes of inhibitors” (Bioorg Med Chem Lett, 2007)
